{"source": "patent US7189526B2", "about": "“Apparatus for culture, process for preparing apparatus for culture, and culturing method” (Kyokuto Pharmaceutical Industrial Co., Ltd., priority 2002, dated 2007)", "molecules": {"B1": {"name": "IL-2: interleukin 2 (IL-2, mouse, recombinant, SIGMA I-0523) (protein, UniProt P04351 21-169, looked up)", "Interleukin-2": "APTSSSTSSSTAEAQQQQQQQQQQQQHLEQLLMDLQELLSRMENYRNLKLPRMLTFKFYLPKQATELKDLQCLEDELGPLRHVLDLTQSKSFQLEDAENFISNIRVTVVKLKGSDNTFECQFDDESATVVDFLRRWIAFCQSIISTSPQ"}}, "key": {"hybridoma KNA14.2 [1]": {"test_system": "hybridoma KNA14.2", "experiment": "Inhibition against cell proliferation by aminopterin and its compensation by hypoxantin, amount of LDH of living cells", "type": "cell-based", "settings": "for level of compensation of inhibition against cell proliferation by aminopterin: four days' culture, 1×10^5 cells per ml; for compensation of inhibition against cell proliferation by aminopterin: six days' culture, low hypoxantin concentration [A(+), H(0.1+)]", "procedure": "In a medium bottle, 0.2 g of Agarose (Takara, L 03 “TaKaRa”) was suspended in 20 ml of ultrapure water (concentration: 1 w/v %). Then, to dissolve the agarose the suspension was heated at 121° C. for 15 minutes in an autoclave (Tomy Seiko, SS-320). A bottle containing the thus-obtained agarose solution was immersed in a water incubator set at 41° C. and the agarose solution was cooled to be 41° C.\nWhile, 10.4 g of a powdery GIBCO™ Medium RPMI 1640 (INVITROGEN CORPORATION, Cat. No. 31800-014) was dissolved in 500 ml of ultrapure water (concentration: about twice the final concentration). This solution was sterilized by making the solution pass through a nitrocellulose filter membrane having a pore size of 0.2 μm. Thus, 2×RPMI 1640 medium solution was prepared.\nTo 100 ml of the 2×RPMI 1640 medium solution, 100 ml of heat-inactivated bovine fetal serum was added under a aseptic condition. The thus-obtained heat-inactivated bovine fetal serum/2×RPMI 1640 medium solution was poured into four sterile bottles in an amount of 30 ml per bottle. The sterile bottles were immersed in a water incubator set at 41° C. and the medium solutions therein were heated to be 41° C.\nThe concentration of aminopterin became twice that in the HAT medium.\nThe concentrations of hypoxanthine and thymidine became twice those in the HAT medium.\nTo a medium solution containing aminopterin in another sterile bottle, the HT supplements were added in amounts such that their total volume is one-five hundredth ( 1/500) of the total volume of the medium solution containing aminopterin and the HT supplements. The concentrations of hypoxanthine and thymidine became one-fifth of those in a HAT medium. The sterile bottles were continuously heated at 41° C.\nThen, at 41° C., 20 ml of the 1 w/v % agarose solution was mixed with 20 ml of medium solution No. 3 under an aseptic condition. By this, concentrations of the culture medium components of RPMI 1640 medium, heat-inactivated bovine fetal serum, aminopterin, and HT supplements, each of which had been prepared in an concentration of twice the final concentration, became one half of their concentrations in medium solution No. 3.\nWhile, 10 ml of ultrapure water which had been sterilized by filtration was added to 10 ml of medium solution No. 3. […] This solution was used as a control solution.\nAfter the mixed solution was poured into the wells, the culture plate was left cooling down for 60 minutes or more under room temperatures. Thus, the mixed solution was gelatinized. Hereafter, the gelatinized mixed solution will be designated as “an aminoprerin/HT-containing agarose gel.”\nIn each well the layer of the aminoprerin/HT-containing agarose gel was punched out in its center by using a biopsy punch having a diameter of 6 mm to form a hollow.\nInto each of the thus-formed hollows, 0.17 ml of the culture medium solution not containing agarose (i.e., the control solution) was poured."}, "hybridoma KNA14.2 [2]": {"test_system": "hybridoma KNA14.2", "settings": "method of the present invention; three days; 5×10^5 cells per ml; [A(+), H(+)]", "procedure": "The cell culture in Example 3 was repeated except that a hybridoma suspension containing hybridoma KNA14.2 in an amount of 5×10^5 per ml was used instead of the hybridoma suspension containing that hybridoma in an amount of 1×10^6 per ml.\nThree days after the culture was started, states of cells that were cultured in a RPMI1640 medium solution containing aminopterin and serum ([A(+), H(−)]) and that were cultured in a RPMI1640 medium solution containing aminopterin, HT supplements, and serum ([A(+), H(+)]) were photographed under a microscope (magnification: ×200).\nFIGS. 17 and 18 show cells that were cultured in the RPMI1640 medium solution containing aminopterin and serum ([A(+), H(−)]) and cells that were cultured in the RPMI1640 medium solution containing aminopterin, HT supplements, and serum ([A(+), H(+)]), respectively, by the method of the present invention (culture in a hollow that was formed in a gel)."}, "[3]": {"experiment": "Diffusion or elution of trypan blue from trypan blue-containing agarose gel to PBS in a hollow", "type": "physicochemical", "settings": "0.5 w/v % agarose gel, 37° C., absorbance at 550 nm", "method": "To 5 ml of distilled water, 0.05 g of agarose (Takara, L 03 “TaKaRa”) was suspended (concentration: 1 w/v %). Then, to dissolve the agarose the suspension was heated at 121° C. for 15 minutes in an autoclave (Tomy Seiko, SS-320). A bottle containing the thus-obtained agarose solution was immersed in a water incubator set at 41° C. and the agarose solution was cooled to be 41° C.\nWhile, a 0.3% trypan blue-containing 2×PBS solution (phosphate buffered saline, 2×PBS) was prepared. This solution was sterilized by making the solution pass through a nitrocellulose filter membrane having a pore size of 0.2 μm. A bottle containing the sterilized 0.3% trypan blue-containing 2×PBS solution was immersed in a water incubator set at 41° C. and the solution was heated to be 41° C. […]\nAt appropriate time intervals, 0.02 ml of the PBS (it seemed that this contained trypan blue) in the hollow that had been made in the center of the gel layer in a well of the culture plate was taken out. […] The absorbance of the diluted PBS was determined at a wave length of 550 nm. The background was determined by using a diluted PBS (concentration: ⅕) containing no trypan blue. The value that was obtained by subtracting the absorbance of the background from that of the PBS that had been taken out from the PBS in the hollow and had diluted was specified as a true absorbance of the diluted PBS. […]"}, "[4]": {"experiment": "Diffusion or elution of IL-2 from IL-2-containing agarose gel to culture medium solution in a hollow (ELISA)", "type": "physicochemical", "settings": "37° C.", "method": "Agarose (Takara, L 03 “TaKaRa”) was added to ultrapure water in a ratio of 1 gram per 100 ml of the water and was suspended (concentration: 1 w/v %). Then, to dissolve the agarose the suspension was heated at 121° C. for 15 minutes in an autoclave (Tomy Seiko, SS-320). A bottle containing the thus-obtained agarose solution was immersed in a water incubator set at 41° C. and the agarose solution was cooled to be 41° C.\nWhile, a powdery GIBCO™ Medium RPMI 1640 (INVITROGEN CORPORATION, Cat. No. 31800-014) (glutamine was contained) was added to ultrapure water in a ratio of 10.4 gram per 500 ml of the water and was dissolved (concentration: about twice the final concentration). This solution was sterilized by making the solution pass through a nitrocellulose filter membrane having a pore size of 0.2 μm. Thus, 2×RPMI 1640 medium solution was prepared.\nTo 30 ml of this medium solution, 2-mercaptoethanol, penicillin, and streptomycin were added under an aseptic condition in such amounts as to be concentrations of 100 μM, 50 U/ml, and […], respectively. Then, to the thus-obtained solution, 6 ml of heat-inactivated bovine fetal serum was added. To the thus-obtained heat-inactivated bovine fetal serum/2×RPMI 1640 medium solution, interleukin 2 (IL-2, mouse, recombinant, SIGMA I-0523) was added in a ratio of 5 ng per ml of the solution. […]\nAt appropriate time intervals after the solution was poured into the hollows, from three hollows solutions were taken out in an amount of 0.02 ml per hollow. […] Then, by using mouse IL-2 Elisa Ready-SET-Go! (e-Bioscience, Cat. No. 88-70224-77), IL-2 concentrations of the samples were determined according to the protocol stated in the instruction.\nThe numerical values of the vertical axis were calculated as follows: After the solutions in the hollows were taken out, the IL-2-containing agarose gel was crushed and a solution was squeezed of the gel. For this solution an IL-2 concentration was determined in the same way as explained above. […]"}}}
{"molecule": "O=c1[nH]cnc2nc[nH]c12", "note": "[hypoxantin, hypoxanthine]", "values": [{"measurement": "compensation of inhibition against cell proliferation by aminopterin through the salvage pathway", "setting": "hybridoma KNA14.2 [1]; [A(+), H(0.1+)] and [A(+), H(+)], 1×10^6 cells per ml, two, three and four days, hollows formed in gels", "value": "compensated"}, {"measurement": "level of compensation of inhibition against cell proliferation by aminopterin", "setting": "hybridoma KNA14.2 [1]; conventional method (ninety-six-well culture plate), [A(+), H(0.1+)] and [A(+), H(+)]", "value": "about 40%"}, {"measurement": "compensation of inhibition against cell proliferation by aminopterin", "setting": "hybridoma KNA14.2 [1]; conventional method", "value": "scarecely compensated"}, {"measurement": "level of compensation of inhibition against cell proliferation by aminopterin", "setting": "hybridoma KNA14.2 [1]; method of the present invention (hollow formed in a gel), [A(+), H(0.1+)] and [A(+), H(+)]", "value": "about 100%"}, {"measurement": "compensation of inhibition against cell proliferation by aminopterin", "setting": "hybridoma KNA14.2 [1]; method of the present invention", "value": "compensated with hypoxantin in the same level as that in the culture using the hypoxantin in its usual concentration"}, {"measurement": "compensation of inhibition against cell proliferation by aminopterin (cell number and states under microscope)", "setting": "hybridoma KNA14.2 [2]", "value": "compensated"}]}
{"molecule": "Cc1cc(-c2ccc(/N=N/c3c(S(=O)(=O)O)cc4cc(S(=O)(=O)O)cc(N)c4c3O)c(C)c2)ccc1/N=N/c1c(S(=O)(=O)O)cc2cc(S(=O)(=O)O)cc(N)c2c1O", "note": "[trypan blue]", "values": [{"measurement": "concentration of trypan blue in PBS in the hollow relative to the equilibrium value", "setting": "[3]; one hour after incubation started", "value": "above 50%"}, {"measurement": "concentration of trypan blue in PBS in the hollow relative to the equilibrium value", "setting": "[3]; three hours after incubation started", "value": "above 80%"}]}
{"molecule": "B1", "values": [{"measurement": "IL-2 concentration of the solution in the hollow relative to the equilibrium value", "setting": "[4]; forty-eight hours after incubation started", "value": "about 70%"}, {"measurement": "IL-2 concentration of the solution in the hollow relative to the equilibrium value", "setting": "[4]; two hours after incubation started", "value": "about 10%"}, {"measurement": "IL-2 concentration of the solution in the hollow relative to the equilibrium value", "setting": "[4]; within six hours", "value": "at least 30%"}]}
